Measured values: ChEMBL document CHEMBL3758163, “Extended structure-activity study of thienopyrimidine-based EGFR inhibitors with evaluation of drug-like properties” (Eur J Med Chem, 2016)

Key:
[1] = target: Protein kinase C alpha type (Homo sapiens) (UniProt P17252); experiment: Inhibition of PRKCA (unknown origin) at 500 nM
[2] = target: Focal adhesion kinase 1 (Homo sapiens) (UniProt Q05397); experiment: Inhibition of PTK2 (unknown origin) at 500 nM
[3] = target: Tyrosine-protein kinase Yes (Homo sapiens) (UniProt P07947); experiment: Inhibition of YES1 (unknown origin) at 500 nM
Tyrosine-protein kinase Yes (Homo sapiens), sequence (P07947 2-543 limits assumed): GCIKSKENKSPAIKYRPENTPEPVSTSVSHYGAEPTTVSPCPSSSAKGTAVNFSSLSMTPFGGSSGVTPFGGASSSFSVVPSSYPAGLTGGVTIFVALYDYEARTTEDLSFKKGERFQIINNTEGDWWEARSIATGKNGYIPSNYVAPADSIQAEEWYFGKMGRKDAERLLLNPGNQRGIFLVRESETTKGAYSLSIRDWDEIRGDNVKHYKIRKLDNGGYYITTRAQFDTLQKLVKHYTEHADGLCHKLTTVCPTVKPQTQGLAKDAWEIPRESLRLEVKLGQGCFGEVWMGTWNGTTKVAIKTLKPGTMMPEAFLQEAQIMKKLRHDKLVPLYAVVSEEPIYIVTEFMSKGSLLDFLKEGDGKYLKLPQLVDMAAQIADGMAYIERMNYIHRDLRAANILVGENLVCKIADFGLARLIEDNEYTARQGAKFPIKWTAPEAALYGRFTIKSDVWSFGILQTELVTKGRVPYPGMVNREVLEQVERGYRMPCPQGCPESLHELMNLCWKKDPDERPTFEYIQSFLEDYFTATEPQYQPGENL

[4] = target: Tyrosine-protein kinase HCK (Homo sapiens) (UniProt P08631); experiment: Inhibition of HCK (unknown origin) at 500 nM
[5] = target: Tyrosine-protein kinase Lyn (Homo sapiens) (UniProt P07948); experiment: Inhibition of LYN B (unknown origin) at 500 nM
Tyrosine-protein kinase Lyn (Homo sapiens), sequence (P07948 2-512 limits assumed): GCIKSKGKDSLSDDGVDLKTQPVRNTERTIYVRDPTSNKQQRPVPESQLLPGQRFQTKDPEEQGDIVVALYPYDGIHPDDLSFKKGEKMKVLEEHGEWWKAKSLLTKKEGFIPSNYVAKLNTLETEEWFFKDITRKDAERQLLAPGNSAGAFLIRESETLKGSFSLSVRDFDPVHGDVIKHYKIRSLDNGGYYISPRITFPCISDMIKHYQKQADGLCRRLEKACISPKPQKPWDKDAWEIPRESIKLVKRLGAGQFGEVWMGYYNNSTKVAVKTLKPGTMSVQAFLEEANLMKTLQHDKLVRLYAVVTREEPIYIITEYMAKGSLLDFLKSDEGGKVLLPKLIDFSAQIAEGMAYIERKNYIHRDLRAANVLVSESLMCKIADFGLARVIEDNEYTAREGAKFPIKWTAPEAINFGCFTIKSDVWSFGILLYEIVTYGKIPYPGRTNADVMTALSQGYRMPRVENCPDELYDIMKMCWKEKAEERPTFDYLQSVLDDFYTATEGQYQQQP

[6] = target: Serine/threonine-protein kinase B-raf (Homo sapiens) (UniProt P15056); experiment: Inhibition of BRAF (unknown origin) at 500 nM
[7] = Half-life in human liver microsomes at 3 uM by LC-MS/MS analysis; format: ADME
[8] = target: Tyrosine-protein kinase JAK2 (Homo sapiens) (UniProt O60674); experiment: Inhibition of JAK2 (unknown origin) at 500 nM
[9] = target: Mast/stem cell growth factor receptor Kit (Homo sapiens) (UniProt P10721); experiment: Inhibition of KIT (unknown origin) at 500 nM
[10] = target: Protein kinase C theta type (Homo sapiens) (UniProt Q04759); experiment: Inhibition of PRKCQ (unknown origin) at 500 nM
Protein kinase C theta type (Homo sapiens), sequence (Q04759 whole entry, looked up): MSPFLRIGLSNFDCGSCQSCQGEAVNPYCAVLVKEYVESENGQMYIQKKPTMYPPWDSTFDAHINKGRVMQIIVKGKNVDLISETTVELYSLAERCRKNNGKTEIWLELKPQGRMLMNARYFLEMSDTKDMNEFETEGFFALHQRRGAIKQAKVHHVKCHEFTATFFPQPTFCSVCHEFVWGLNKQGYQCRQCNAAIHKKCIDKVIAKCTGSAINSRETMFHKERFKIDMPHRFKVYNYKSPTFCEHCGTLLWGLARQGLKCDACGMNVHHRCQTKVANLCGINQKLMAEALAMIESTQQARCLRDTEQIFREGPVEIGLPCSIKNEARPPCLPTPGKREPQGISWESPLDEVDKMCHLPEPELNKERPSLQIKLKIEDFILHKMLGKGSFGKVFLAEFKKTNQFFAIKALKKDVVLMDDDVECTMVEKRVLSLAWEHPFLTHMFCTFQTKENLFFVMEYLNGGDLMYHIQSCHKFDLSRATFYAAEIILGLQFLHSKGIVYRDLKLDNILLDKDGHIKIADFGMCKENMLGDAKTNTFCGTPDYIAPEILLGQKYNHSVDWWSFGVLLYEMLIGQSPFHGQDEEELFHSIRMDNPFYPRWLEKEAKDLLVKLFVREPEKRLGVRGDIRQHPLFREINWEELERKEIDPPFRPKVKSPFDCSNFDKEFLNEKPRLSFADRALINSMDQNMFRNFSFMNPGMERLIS

[11] = target: Insulin-like growth factor 1 receptor (Homo sapiens) (UniProt P08069); experiment: Inhibition of IGF1R (unknown origin) at 500 nM
[12] = target: T1, Inhibitor of nuclear factor kappa-B kinase subunit beta (Homo sapiens) (UniProt O14920); experiment: Inhibition of IKBKB (unknown origin) at 500 nM
T1 sequence (whole entry): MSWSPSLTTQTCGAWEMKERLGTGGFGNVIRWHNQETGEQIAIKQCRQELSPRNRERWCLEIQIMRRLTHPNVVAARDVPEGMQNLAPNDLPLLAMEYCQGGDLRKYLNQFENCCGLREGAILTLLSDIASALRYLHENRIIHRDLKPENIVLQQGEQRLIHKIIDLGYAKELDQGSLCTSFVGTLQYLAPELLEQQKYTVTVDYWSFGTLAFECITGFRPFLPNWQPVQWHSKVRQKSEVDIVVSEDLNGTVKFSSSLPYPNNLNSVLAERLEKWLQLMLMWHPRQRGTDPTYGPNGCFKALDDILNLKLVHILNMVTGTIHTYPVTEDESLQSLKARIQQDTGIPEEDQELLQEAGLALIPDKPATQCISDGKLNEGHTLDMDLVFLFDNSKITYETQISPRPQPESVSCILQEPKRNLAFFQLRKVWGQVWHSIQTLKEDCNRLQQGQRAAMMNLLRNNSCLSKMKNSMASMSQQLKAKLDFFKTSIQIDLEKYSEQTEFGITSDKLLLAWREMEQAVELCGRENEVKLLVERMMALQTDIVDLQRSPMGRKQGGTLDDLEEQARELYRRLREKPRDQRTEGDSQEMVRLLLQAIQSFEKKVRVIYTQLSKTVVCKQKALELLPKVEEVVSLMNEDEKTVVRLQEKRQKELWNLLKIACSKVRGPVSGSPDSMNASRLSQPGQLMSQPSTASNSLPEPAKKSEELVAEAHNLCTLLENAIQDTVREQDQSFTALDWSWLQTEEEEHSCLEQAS

[13] = target: Mitogen-activated protein kinase 14 (Homo sapiens) (UniProt Q16539); experiment: Inhibition of MAPK14 (unknown origin) at 500 nM
Mitogen-activated protein kinase 14 (Homo sapiens), sequence (Q16539 whole entry): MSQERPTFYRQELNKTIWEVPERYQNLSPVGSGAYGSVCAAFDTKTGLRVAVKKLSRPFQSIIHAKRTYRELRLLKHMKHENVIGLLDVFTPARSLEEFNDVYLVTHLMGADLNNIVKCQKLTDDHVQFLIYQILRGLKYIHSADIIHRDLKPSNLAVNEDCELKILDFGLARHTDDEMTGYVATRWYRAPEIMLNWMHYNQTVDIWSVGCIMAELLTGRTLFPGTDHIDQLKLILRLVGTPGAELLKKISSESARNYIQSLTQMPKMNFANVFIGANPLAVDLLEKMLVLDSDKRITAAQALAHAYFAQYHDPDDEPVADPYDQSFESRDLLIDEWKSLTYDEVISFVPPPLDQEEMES

[14] = target: T2, Testis-specific serine/threonine-protein kinase 2 (Homo sapiens) (UniProt Q96PF2); experiment: Inhibition of STK22B (unknown origin) at 500 nM
T2 sequence (whole entry): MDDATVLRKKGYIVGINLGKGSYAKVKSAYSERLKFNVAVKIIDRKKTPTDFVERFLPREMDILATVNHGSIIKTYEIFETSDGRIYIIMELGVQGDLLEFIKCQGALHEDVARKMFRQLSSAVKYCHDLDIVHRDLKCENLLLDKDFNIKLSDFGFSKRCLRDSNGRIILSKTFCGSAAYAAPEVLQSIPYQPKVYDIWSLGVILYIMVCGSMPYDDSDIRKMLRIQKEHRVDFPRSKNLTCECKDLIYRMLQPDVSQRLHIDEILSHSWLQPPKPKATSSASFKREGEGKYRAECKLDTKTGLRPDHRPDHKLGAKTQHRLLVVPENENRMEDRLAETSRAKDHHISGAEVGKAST

[15] = target: Macrophage colony-stimulating factor 1 receptor (Homo sapiens) (UniProt P07333); experiment: Inhibition of CSF1R (unknown origin) at 500 nM
Macrophage colony-stimulating factor 1 receptor (Homo sapiens), sequence (P07333 whole entry): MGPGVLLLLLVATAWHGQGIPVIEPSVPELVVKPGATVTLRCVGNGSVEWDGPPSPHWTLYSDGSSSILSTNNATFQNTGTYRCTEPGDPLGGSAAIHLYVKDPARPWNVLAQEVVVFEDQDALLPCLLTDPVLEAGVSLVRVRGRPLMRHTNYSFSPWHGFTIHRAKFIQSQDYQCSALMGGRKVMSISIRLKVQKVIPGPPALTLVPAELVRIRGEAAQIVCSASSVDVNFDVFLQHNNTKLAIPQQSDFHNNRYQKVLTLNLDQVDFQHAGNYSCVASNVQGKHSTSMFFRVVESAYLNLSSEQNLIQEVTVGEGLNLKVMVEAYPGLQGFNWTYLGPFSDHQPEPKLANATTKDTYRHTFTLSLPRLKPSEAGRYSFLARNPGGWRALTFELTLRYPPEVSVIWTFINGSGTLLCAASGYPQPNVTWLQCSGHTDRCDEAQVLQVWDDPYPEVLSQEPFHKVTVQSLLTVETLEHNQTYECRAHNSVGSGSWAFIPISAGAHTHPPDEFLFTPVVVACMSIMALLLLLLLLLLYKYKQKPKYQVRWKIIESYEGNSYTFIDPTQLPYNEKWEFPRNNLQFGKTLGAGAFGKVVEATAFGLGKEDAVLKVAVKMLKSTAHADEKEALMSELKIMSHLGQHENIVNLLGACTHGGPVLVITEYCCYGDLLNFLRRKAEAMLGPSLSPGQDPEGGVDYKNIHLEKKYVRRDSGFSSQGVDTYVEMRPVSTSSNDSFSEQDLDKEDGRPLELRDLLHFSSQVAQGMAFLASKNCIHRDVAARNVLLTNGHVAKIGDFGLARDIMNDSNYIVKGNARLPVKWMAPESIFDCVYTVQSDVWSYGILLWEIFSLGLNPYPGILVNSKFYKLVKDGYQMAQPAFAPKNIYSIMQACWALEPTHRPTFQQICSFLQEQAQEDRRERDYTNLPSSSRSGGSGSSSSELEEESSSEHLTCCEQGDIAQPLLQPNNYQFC

[16] = target: Tyrosine-protein kinase Fyn (Homo sapiens) (UniProt P06241); experiment: Inhibition of FYN (unknown origin) at 500 nM
[17] = target: Mitogen-activated protein kinase 1 (Homo sapiens) (UniProt P28482); experiment: Inhibition of MAPK1 (unknown origin) at 500 nM
[18] = target: T3, Aurora kinase A (Homo sapiens) (UniProt O14965); experiment: Inhibition of AURKA (unknown origin) at 500 nM
T3 sequence (whole entry): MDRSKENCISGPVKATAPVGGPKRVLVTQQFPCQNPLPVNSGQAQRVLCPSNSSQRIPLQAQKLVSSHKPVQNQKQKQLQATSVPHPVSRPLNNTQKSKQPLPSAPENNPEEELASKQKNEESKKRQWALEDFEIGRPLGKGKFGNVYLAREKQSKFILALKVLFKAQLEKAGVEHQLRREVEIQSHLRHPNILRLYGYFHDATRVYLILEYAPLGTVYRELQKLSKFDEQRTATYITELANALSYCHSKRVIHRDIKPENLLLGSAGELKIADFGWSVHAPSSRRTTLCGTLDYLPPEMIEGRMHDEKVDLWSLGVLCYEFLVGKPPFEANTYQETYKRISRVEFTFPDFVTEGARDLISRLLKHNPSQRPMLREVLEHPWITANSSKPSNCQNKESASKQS

[19] = target: Mitogen-activated protein kinase 8 (Homo sapiens) (UniProt P45983); experiment: Inhibition of MAPK8 (unknown origin) at 500 nM
[20] = target: Vascular endothelial growth factor receptor 3 (Homo sapiens) (UniProt P35916); experiment: Inhibition of FLT4 (unknown origin) at 500 nM
[21] = target: Vascular endothelial growth factor receptor 1 (Homo sapiens) (UniProt P17948); experiment: Inhibition of FLT1 (unknown origin) at 500 nM
[22] = target: Tyrosine-protein kinase SYK (Homo sapiens) (UniProt P43405); experiment: Inhibition of SYK (unknown origin) at 500 nM
[23] = target: Proto-oncogene tyrosine-protein kinase receptor Ret (Homo sapiens) (UniProt P07949); experiment: Inhibition of RET (unknown origin) at 500 nM
[24] = target: Tyrosine-protein kinase ABL1 (Homo sapiens) (UniProt P00519); experiment: Inhibition of ABL1 (unknown origin) at 500 nM

Focal adhesion kinase 1 (Homo sapiens), sequence (Q05397 2-1052 limits assumed): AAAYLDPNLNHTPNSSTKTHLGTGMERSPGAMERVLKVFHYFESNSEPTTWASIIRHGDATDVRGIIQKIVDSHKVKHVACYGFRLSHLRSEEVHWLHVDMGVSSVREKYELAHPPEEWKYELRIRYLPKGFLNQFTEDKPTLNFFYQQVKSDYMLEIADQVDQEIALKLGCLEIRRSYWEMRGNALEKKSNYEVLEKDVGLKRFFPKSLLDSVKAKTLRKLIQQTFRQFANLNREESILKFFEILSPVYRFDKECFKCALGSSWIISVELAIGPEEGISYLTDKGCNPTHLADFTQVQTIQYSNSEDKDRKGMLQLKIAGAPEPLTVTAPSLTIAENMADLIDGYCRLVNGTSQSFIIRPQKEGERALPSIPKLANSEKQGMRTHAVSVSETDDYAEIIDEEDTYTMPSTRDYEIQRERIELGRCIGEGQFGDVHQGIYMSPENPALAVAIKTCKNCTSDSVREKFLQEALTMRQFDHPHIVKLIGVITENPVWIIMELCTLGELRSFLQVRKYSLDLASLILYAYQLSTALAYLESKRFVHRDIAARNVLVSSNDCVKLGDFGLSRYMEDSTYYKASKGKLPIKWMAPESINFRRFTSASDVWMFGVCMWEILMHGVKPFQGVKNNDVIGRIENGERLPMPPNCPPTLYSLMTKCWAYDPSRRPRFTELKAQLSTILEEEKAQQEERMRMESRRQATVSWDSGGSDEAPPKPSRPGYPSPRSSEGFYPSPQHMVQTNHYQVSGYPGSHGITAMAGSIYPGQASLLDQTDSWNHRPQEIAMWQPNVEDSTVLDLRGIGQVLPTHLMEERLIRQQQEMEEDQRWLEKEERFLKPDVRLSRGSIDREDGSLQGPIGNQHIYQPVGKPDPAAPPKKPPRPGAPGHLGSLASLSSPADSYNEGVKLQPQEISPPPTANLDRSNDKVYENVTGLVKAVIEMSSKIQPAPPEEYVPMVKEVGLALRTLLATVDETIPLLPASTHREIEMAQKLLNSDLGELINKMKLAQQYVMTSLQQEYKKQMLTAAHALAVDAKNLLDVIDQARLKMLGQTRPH

SMILES | inhibition [1] | inhibition [2] | inhibition [3] | inhibition [4] | inhibition [5] | inhibition [6] | half-life at 3 µM [7] | inhibition [8] | inhibition [9] | inhibition [10] | inhibition [11] | inhibition [12] | inhibition [13] | inhibition [14] | inhibition [15] | inhibition [16] | inhibition [17] | inhibition [18] | inhibition [19] | inhibition [20] | further results
COc1cc(C(N)=O)ccc1-c1cc2c(N[C@H](CO)c3ccccc3)ncnc2s1 | -4% | 3% | 40% | 13% | 57% | 25% | 308 min | -2% | -9% | -2% | -9% | 3% | 6% | 11% | 6% | 16% | 12% | 6% | 42% | 13% | inhibition [21]: 0%; inhibition [22]: 17%; inhibition [23]: 5%; inhibition [24]: 4%
COc1cc(CO)ccc1-c1cc2c(Nc3ccc(F)c(Cl)c3)ncnc2s1 | 2% | 16% | 14% | 15% | 15% | 3% | 156 min | -3% | 1% | 3% | -3% | 1% | 6% | 1% | 4% | 5% | 6% | -6% | 14% | 8% | inhibition [21]: 2%; inhibition [22]: 11%; inhibition [23]: 16%; inhibition [24]: 19%
